Source: the supplement of paper PMC13380429

How the values were obtained:
Details in all cases: 72 h
Caco-2 [1] = experiment: cell viability relative to DMSO; higher = less toxic
HepG2 [2] = experiment: as above
U2OS [3] = experiment: as above
Vero E6 [4] = experiment: as above
Caco-2 [5] = experiment: relative viability EC50 (midpoint between 100% and the lowest measured viability); higher = less toxic
HepG2 [6] = experiment: as above
U2OS [7] = experiment: as above
Vero E6 [8] = experiment: as above
Caco-2 [9] = experiment: drug sensitivity score (DSS) for viability; higher = more toxic; extreme values may be limits of the assay
HepG2 [10] = experiment: as above
U2OS [11] = experiment: as above
Vero E6 [12] = experiment: as above
Calu-3 = experiment: as above

c1ccc(CCNc2nc(-c3ccccc3)cs2)cc1 [fanetizole]
cell viability (Caco-2 [1]; 1 nM): 96.4%
cell viability (Caco-2 [1]; 10 nM): 87.3%
cell viability (Caco-2 [1]; 100 nM): 92.3%
cell viability (Caco-2 [1]; 1000 nM): 88.9%
cell viability (Caco-2 [1]; 10000 nM): 87.3%
cell viability (HepG2 [2]; 1 nM): 101%
cell viability (HepG2 [2]; 10 nM): 96.9%
cell viability (HepG2 [2]; 100 nM): 103%
cell viability (HepG2 [2]; 1000 nM): 94.5%
cell viability (HepG2 [2]; 10000 nM): 100%
cell viability (U2OS [3]; 1 nM): 104%
cell viability (U2OS [3]; 10 nM): 104%
cell viability (U2OS [3]; 100 nM): 104%
cell viability (U2OS [3]; 1000 nM): 97.7%
cell viability (U2OS [3]; 10000 nM): 101%
cell viability (Vero E6 [4]; 1 nM): 98.7%
cell viability (Vero E6 [4]; 10 nM): 99.7%
cell viability (Vero E6 [4]; 100 nM): 101%
cell viability (Vero E6 [4]; 1000 nM): 98.4%
cell viability (Vero E6 [4]; 10000 nM): 100%
relative viability EC50 (Caco-2 [5]): > 10 µM
relative viability EC50 (HepG2 [6]): > 10 µM
relative viability EC50 (U2OS [7]): > 10 µM
relative viability EC50 (Vero E6 [8]): > 10 µM
drug sensitivity score (Caco-2 [9]): 0.9
drug sensitivity score (HepG2 [10]): 0
drug sensitivity score (U2OS [11]): 0
drug sensitivity score (Vero E6 [12]): 0

Cc1ccc(S(=O)(=O)NC(=O)NN2CC3CCCC3C2)cc1 (centres undefined) [gliclazide]
cell viability (Caco-2 [1]; 1 nM): 87%
cell viability (Caco-2 [1]; 10 nM): 110%
cell viability (Caco-2 [1]; 100 nM): 100%
cell viability (Caco-2 [1]; 1000 nM): 102%
cell viability (Caco-2 [1]; 10000 nM): 89%
cell viability (HepG2 [2]; 1 nM): 99.1%
cell viability (HepG2 [2]; 10 nM): 96.1%
cell viability (HepG2 [2]; 100 nM): 105%
cell viability (HepG2 [2]; 1000 nM): 118%
cell viability (HepG2 [2]; 10000 nM): 108%
cell viability (U2OS [3]; 1 nM): 92%
cell viability (U2OS [3]; 10 nM): 99.3%
cell viability (U2OS [3]; 100 nM): 102%
cell viability (U2OS [3]; 1000 nM): 93.3%
cell viability (U2OS [3]; 10000 nM): 101%
cell viability (Vero E6 [4]; 1 nM): 106%
cell viability (Vero E6 [4]; 10 nM): 97%
cell viability (Vero E6 [4]; 100 nM): 101%
cell viability (Vero E6 [4]; 1000 nM): 99.2%
cell viability (Vero E6 [4]; 10000 nM): 102%
relative viability EC50 (Caco-2 [5]): > 10 µM
relative viability EC50 (HepG2 [6]): > 10 µM
relative viability EC50 (U2OS [7]): > 10 µM
relative viability EC50 (Vero E6 [8]): > 10 µM
drug sensitivity score (Caco-2 [9]): 0
drug sensitivity score (HepG2 [10]): 0
drug sensitivity score (U2OS [11]): 0
drug sensitivity score (Vero E6 [12]): 0

CN(C)c1ccc2nc3ccc(=[N+](C)C)cc-3sc2c1 [methylene-blue]
drug sensitivity score (Calu-3): 6.1
drug sensitivity score (HepG2 [10]): 9.2
drug sensitivity score (U2OS [11]): 3
drug sensitivity score (Vero E6 [12]): 5.1

COc1ccccc1OCC(O)CNC(C)C (centres undefined) [moprolol]
cell viability (Caco-2 [1]; 1 nM): 97.7%
cell viability (Caco-2 [1]; 10 nM): 95.4%
cell viability (Caco-2 [1]; 100 nM): 99.6%
cell viability (Caco-2 [1]; 1000 nM): 98.2%
cell viability (Caco-2 [1]; 10000 nM): 92.7%
cell viability (HepG2 [2]; 1 nM): 98.3%
cell viability (HepG2 [2]; 10 nM): 113%
cell viability (HepG2 [2]; 100 nM): 100%
cell viability (HepG2 [2]; 1000 nM): 98.3%
cell viability (HepG2 [2]; 10000 nM): 103%
cell viability (U2OS [3]; 1 nM): 101%
cell viability (U2OS [3]; 10 nM): 96.6%
cell viability (U2OS [3]; 100 nM): 99.7%
cell viability (U2OS [3]; 1000 nM): 102%
cell viability (U2OS [3]; 10000 nM): 103%
cell viability (Vero E6 [4]; 1 nM): 102%
cell viability (Vero E6 [4]; 10 nM): 99.6%
cell viability (Vero E6 [4]; 100 nM): 105%
cell viability (Vero E6 [4]; 1000 nM): 99.5%
cell viability (Vero E6 [4]; 10000 nM): 102%
relative viability EC50 (Caco-2 [5]): > 10 µM
relative viability EC50 (HepG2 [6]): > 10 µM
relative viability EC50 (U2OS [7]): > 10 µM
relative viability EC50 (Vero E6 [8]): > 10 µM
drug sensitivity score (Caco-2 [9]): 0
drug sensitivity score (HepG2 [10]): 0
drug sensitivity score (U2OS [11]): 0
drug sensitivity score (Vero E6 [12]): 0

CCCCCCCCCCCCCCOC(=O)c1cccnc1 [myristyl-nicotinate]
cell viability (Caco-2 [1]; 1 nM): 98.2%
cell viability (Caco-2 [1]; 10 nM): 103%
cell viability (Caco-2 [1]; 100 nM): 97.7%
cell viability (Caco-2 [1]; 1000 nM): 97.8%
cell viability (Caco-2 [1]; 10000 nM): 103%
cell viability (HepG2 [2]; 1 nM): 98.7%
cell viability (HepG2 [2]; 10 nM): 93.5%
cell viability (HepG2 [2]; 100 nM): 105%
cell viability (HepG2 [2]; 1000 nM): 99.4%
cell viability (HepG2 [2]; 10000 nM): 102%
cell viability (U2OS [3]; 1 nM): 101%
cell viability (U2OS [3]; 10 nM): 96.7%
cell viability (U2OS [3]; 100 nM): 101%
cell viability (U2OS [3]; 1000 nM): 98.4%
cell viability (U2OS [3]; 10000 nM): 102%
cell viability (Vero E6 [4]; 1 nM): 96.6%
cell viability (Vero E6 [4]; 10 nM): 98.2%
cell viability (Vero E6 [4]; 100 nM): 97.6%
cell viability (Vero E6 [4]; 1000 nM): 102%
cell viability (Vero E6 [4]; 10000 nM): 101%
relative viability EC50 (Caco-2 [5]): > 10 µM
relative viability EC50 (HepG2 [6]): > 10 µM
relative viability EC50 (U2OS [7]): > 10 µM
relative viability EC50 (Vero E6 [8]): > 10 µM
drug sensitivity score (Caco-2 [9]): 0
drug sensitivity score (HepG2 [10]): 0
drug sensitivity score (U2OS [11]): 0
drug sensitivity score (Vero E6 [12]): 0

O=C(O)C(=O)O.[NH-][C@@H]1CCCC[C@H]1[NH-].[Pt+2] [oxaliplatin]
drug sensitivity score (Calu-3): 0
drug sensitivity score (HepG2 [10]): 6
drug sensitivity score (U2OS [11]): 0.1
drug sensitivity score (Vero E6 [12]): 4.8

Cc1cccn2c(=O)c(-c3nnn[nH]3)cnc12 [pemirolast]
cell viability (Caco-2 [1]; 1 nM): 95.1%
cell viability (Caco-2 [1]; 10 nM): 98.6%
cell viability (Caco-2 [1]; 100 nM): 92.6%
cell viability (Caco-2 [1]; 1000 nM): 96.1%
cell viability (Caco-2 [1]; 10000 nM): 97.6%
cell viability (HepG2 [2]; 1 nM): 102%
cell viability (HepG2 [2]; 10 nM): 98.2%
cell viability (HepG2 [2]; 100 nM): 101%
cell viability (HepG2 [2]; 1000 nM): 96.2%
cell viability (HepG2 [2]; 10000 nM): 92.7%
cell viability (U2OS [3]; 1 nM): 98.4%
cell viability (U2OS [3]; 10 nM): 95.1%
cell viability (U2OS [3]; 100 nM): 95.4%
cell viability (U2OS [3]; 1000 nM): 91.5%
cell viability (U2OS [3]; 10000 nM): 95.6%
cell viability (Vero E6 [4]; 1 nM): 89.7%
cell viability (Vero E6 [4]; 10 nM): 88.7%
cell viability (Vero E6 [4]; 100 nM): 88.5%
cell viability (Vero E6 [4]; 1000 nM): 96.4%
cell viability (Vero E6 [4]; 10000 nM): 93.8%
relative viability EC50 (Caco-2 [5]): > 10 µM
relative viability EC50 (HepG2 [6]): > 10 µM
relative viability EC50 (U2OS [7]): > 10 µM
relative viability EC50 (Vero E6 [8]): > 10 µM
drug sensitivity score (Caco-2 [9]): 0
drug sensitivity score (HepG2 [10]): 0
drug sensitivity score (U2OS [11]): 0
drug sensitivity score (Vero E6 [12]): 0

O=C(/C=C/c1ccc(O)c2c1[C@H](C(=O)O[C@H](Cc1ccc(O)c(O)c1)C(=O)O)[C@@H](c1ccc(O)c(O)c1)O2)O[C@H](Cc1ccc(O)c(O)c1)C(=O)O [salvianolic-acid-B]
cell viability (Caco-2 [1]; 1 nM): 99.2%
cell viability (Caco-2 [1]; 10 nM): 97.1%
cell viability (Caco-2 [1]; 100 nM): 96.6%
cell viability (Caco-2 [1]; 1000 nM): 104%
cell viability (Caco-2 [1]; 10000 nM): 101%
cell viability (HepG2 [2]; 1 nM): 101%
cell viability (HepG2 [2]; 10 nM): 86.8%
cell viability (HepG2 [2]; 100 nM): 107%
cell viability (HepG2 [2]; 1000 nM): 96.3%
cell viability (HepG2 [2]; 10000 nM): 98%
cell viability (U2OS [3]; 1 nM): 94.4%
cell viability (U2OS [3]; 10 nM): 98.2%
cell viability (U2OS [3]; 100 nM): 97.5%
cell viability (U2OS [3]; 1000 nM): 101%
cell viability (U2OS [3]; 10000 nM): 97.8%
cell viability (Vero E6 [4]; 1 nM): 96.1%
cell viability (Vero E6 [4]; 10 nM): 92.9%
cell viability (Vero E6 [4]; 100 nM): 95.3%
cell viability (Vero E6 [4]; 1000 nM): 91.6%
cell viability (Vero E6 [4]; 10000 nM): 103%
relative viability EC50 (Caco-2 [5]): > 10 µM
relative viability EC50 (HepG2 [6]): > 10 µM
relative viability EC50 (U2OS [7]): > 10 µM
relative viability EC50 (Vero E6 [8]): > 10 µM
drug sensitivity score (Caco-2 [9]): 0
drug sensitivity score (HepG2 [10]): 0
drug sensitivity score (U2OS [11]): 0
drug sensitivity score (Vero E6 [12]): 0

C=C1/C(=C\C=C2/CCC[C@]3(C)[C@@H]([C@H](C)CC[C@@H](O)C(C)C)CC[C@@H]23)C[C@@H](O)C[C@@H]1O [tacalcitol]
drug sensitivity score (Calu-3): 0
drug sensitivity score (HepG2 [10]): 0
drug sensitivity score (U2OS [11]): 0.3
drug sensitivity score (Vero E6 [12]): 1.9

Clc1ccc2nsnc2c1NC1=NCCN1 [tizanidine]
drug sensitivity score (Calu-3): 0
drug sensitivity score (HepG2 [10]): 0
drug sensitivity score (U2OS [11]): 0
drug sensitivity score (Vero E6 [12]): 0
